Test results as given in patent US10682371B2, “Small molecule conjugates specifically activated in tumor microenvironment for targeting and use thereof” (priority 2014, dated 2020).
Entries after “also recorded” stand apart in the source; their conditions may differ.

What was measured:
asparagine endopeptidase = molecular target: T1, asparagine endopeptidase (Homo sapiens, UniProt Q99538)
T1 sequence (Q99538 26-323 limits assumed): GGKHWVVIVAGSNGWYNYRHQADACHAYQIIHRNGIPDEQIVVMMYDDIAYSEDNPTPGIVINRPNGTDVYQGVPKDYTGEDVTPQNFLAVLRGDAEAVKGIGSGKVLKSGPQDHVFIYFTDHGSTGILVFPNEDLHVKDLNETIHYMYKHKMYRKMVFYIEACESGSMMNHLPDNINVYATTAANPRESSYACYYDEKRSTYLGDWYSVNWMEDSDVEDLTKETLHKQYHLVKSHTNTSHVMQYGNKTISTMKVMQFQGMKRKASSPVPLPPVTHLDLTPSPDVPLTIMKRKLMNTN
Procedure: Reduction of reactant and increase of product were detected by HPLC, thereby comparing the activation efficiency of these compounds.
When R1 is 2-(2-Methoxyethoxy)Acetyl, and R3 is Ala, activation study and efficacy study were carried out by using compounds having different cleavable linker. The study methods are identical to those in Examples 10, 11 and 12. The in vitro activation efficiency was tested by asparagine endopeptidase and the tumor inhibition rate was tested by using human breast cancer MDA-MB231 model.

[1] = system: tumor-derived immunosuppressive T cells (T reg: CD4+, CD25+, Foxp3+); CD8 T cells; test: Immunological stimulation test in mice receiving tumor treatment (T reg, CD8 T cells); format: in vivo
Excerpt: We further studied the immunological stimulation property of Legutaxel. […] On the contrary, the index for tumor-derived immunosuppressive T cells in treatment group by Legutaxel decreased due to targeted chemotherapy (see panels in FIGS. 3A and 3B).

Mice = test: Toxicity of Legutaxel injected at tail vein weekly for 3 times, observed over 21 days; format: in vivo
Procedure: Mice were injected with Legutaxel at tail vein weekly for 3 times. […] Therefore, Legutaxel's dose could at least reach 160 mg/kg/day during treatment.

MDA-MB231 tumor tissue = test: Activation efficiency by MDA-MB231 tumor tissue (HPLC); format: biochemical
Procedure: At 37 °C, sample compounds were added into 100 μg acidized tumor tissue homogenates in a concentration of 1 mg/ml.
In the experiments, at 37 °C, compounds were added into proteases in 100 μg acidized tumor tissue homogenates in a concentration of 1 mg/ml. […] Meanwhile certain compounds produced in the screening were compared and their activation efficiency in same tissue was analyzed.

[2] = system: Human prostate cancer PC-3 cells; test: Tumor treatment in nude mice, PC-3 model (Example 51); format: in vivo
Procedure: 1) Human prostate cancer PC-3 cells were purchased from American type culture collection (ATCC) and identified according the specification provided by ATCC. Cells were cultivated in DMEM culture solution containing 10% fetal bovine serum at 37° C. and 5% CO2. The cells were passaged for every three days and cells within the 15th passage were used.
2) Production of tumor. 5×10^6PC-3 cells were subcutaneously injected to the back of the nude mice. Mice were randomly grouped after the tumor reached at least 100 mm^3. Then treatment began and the day on which the treatment began was day 1.
According to the clinical application of D1, D2, D3 and D4, drugs were intravenously injected (IV). […]. The control group was administered by physiological saline. Drugs were administered once weekly for four weeks.

HT1080 cells = test: Tumor treatment in nude mice, HT1080 model (Example 61); format: in vivo; conditions: for Size of tumor (mm^3) Day 13 / inhibitory rate on tumor Day 13 / Size of tumor (mm^3) Day 26 / inhibitory rate on tumor (Day 26): HT1080 in nude mice, IV once weekly for four weeks, E1-E4 15 mg/kg, mitomycin 2 mg/kg; for Inhibition on tumor growth, in words: HT1080, compared with mitomycin group and control group
Procedure: 1) HT1080 cells were purchased from American type culture collection (ATCC) and identified according the specification provided by ATCC. Cells were cultivated in DMEM culture solution containing 10% fetal bovine serum at 37° C. and 5% CO2. The cells were passaged for every three days and cells within the 15th passage were used.
2) Production of tumor. 5×10^6 HT1080 cells were subcutaneously injected to the back of the nude mice. Mice were randomly grouped after the tumor reached at least 100 mm^3. Then treatment began and the day on which the treatment began was day 1.
[…]. The control group was administered by physiological saline. Drugs were administered once weekly for four weeks.

[3] = Maximum tolerated dose (MTD) / acute toxicity by single intravenous injection; conditions: female, BALB/C, mouse, in vivo, iv
[4] = Table 48, nude mice, PC-3, IV once weekly for four weeks, D1-D4 25 mg/kg, Docetaxel […], Day 10
[5] = Table 48, nude mice, PC-3, IV once weekly for four weeks, D1-D4 25 mg/kg, Docetaxel […], Day 24

4-N—(N—(N—(N-(6-maleimido caproyl)-L-alanyl)-L-alanyl)-L-asparaginyl)-amino benzyl alcohol-MMAE-carbamate [Compound S6]
Activation by asparagine endopeptidase, in words (asparagine endopeptidase): cannot be activated; also recorded: not activated
Cleaving efficiency (asparagine endopeptidase; different cleavable linkers of MMAE and Doxorubicin, in vitro activation by asparagine endopeptidase): 25.6%

COCCOCC(=O)N[C@H](C)C(=O)N[C@H](C)C(=O)N[C@H](CC(N)=O)C(=O)Nc1ccc(COC(=O)OC(C(=O)OC2C[C@@]3(O)C(OC(=O)c4ccccc4)[C@@H]4C5(OC(C)=O)COC5C[C@H](O)[C@@]4(C)C(=O)[C@H](OC(C)=O)C(=C2C)C3(C)C)[C@@H](NC(=O)c2ccccc2)c2ccccc2)cc1 (stereo in doubt) [S1′, 2-(2-methoxyethoxy) acetylamino-L-Ala-L-Ala-L-Asn-p-amino-benzyl-paclitaxel]
Toxic CD8 T cells permeated from the tumor tissue ([1]; lung cancer treatment model): more toxic CD8 T cells
Index for tumor-derived immunosuppressive T cells (T reg: CD4+, CD25+, Foxp3+) ([1]; mice receiving tumor treatment): decreased
Dose that can be reached during treatment (Mice; tail vein weekly for 3 times): ≥ 160 mg/kg/day
Death in toxicity experiments (Mice; tail vein weekly for 3 times, 140, 150 and 160 mg/kg/day, observed over 21 days): no death were observed

COCCOCC(=O)NCCCC[C@H](NC(=O)COCCOC)C(=O)N[C@H](C)C(=O)N[C@H](C)C(=O)N[C@H](CC(N)=O)C(=O)Nc1ccc(COC(=O)OC(C(=O)OC2C[C@@]3(O)[C@@H](OC(=O)c4ccccc4)[C@H]4[C@](C)(C(=O)[C@H](O)C(=C2C)C3(C)C)[C@@H](O)CC2OC[C@]24OC(C)=O)[C@@H](NC(=O)OC(C)(C)C)c2ccccc2)cc1 (some centres unmarked) [Compound B1]
activation efficiency (%) (MDA-MB231 tumor tissue; Table 35, water-soluble Docetaxel series and controls): 93.4%

COCCOCC(=O)N[C@H](C)C(=O)N[C@H](C)C(=O)N[C@H](CC(N)=O)C(=O)Nc1ccc(COC(=O)OC(C(=O)OC2C[C@@]3(O)[C@@H](OC(=O)c4ccccc4)[C@H]4[C@](C)(C(=O)[C@H](O)C(=C2C)C3(C)C)[C@@H](O)CC2OC[C@]24OC(C)=O)[C@@H](NC(=O)OC(C)(C)C)c2ccccc2)cc1 (stereo partly drawn) [Compound D1, 2-(2-methoxyethoxy) acetyl-L-Ala-L-Ala-L-Asn-4-amino benzyl-Docetaxel]
activation efficiency (%) (MDA-MB231 tumor tissue; Table 46, Docetaxel D series and controls): 91.5%
Size of tumor (mm^3) Day 10 [2, 4]: 86.45 ± 26.42 mm^3
inhibitory rate on tumor Day 10 [2, 4]: 75.0
Size of tumor (mm^3) Day 24 [2, 5]: 143.34 ± 44.42 mm^3
inhibitory rate on tumor Day 24 [2, 5]: 80.5
Inhibition on tumor growth, in words ([2]; compared with Docetaxel group and control group): greatly improved

COCCOCC(=O)N[C@H](C)C(=O)N[C@H](C)C(=O)N[C@H](CC(N)=O)C(=O)Nc1ccc(COC(=O)N2[C@@H]3CN4C5=C(C(=O)C(N)=C(C)C5=O)[C@H](COC(N)=O)[C@]4(OC)[C@@H]32)cc1 [Compound E1, 2-(2-methoxyethoxy) acetyl-L-Ala-L-Ala-L-Asn-4-amino benzyl mitomycin]
Size of tumor (mm^3) Day 13 (HT1080 cells): 438.15 ± 47.96 mm^3
inhibitory rate on tumor Day 13 (HT1080 cells): 51.9%
Size of tumor (mm^3) Day 26 (HT1080 cells): 331.57 ± 114.74 mm^3
inhibitory rate on tumor (Day 26) (HT1080 cells): 78.9%
Inhibition on tumor growth, in words (HT1080 cells): greatly improved
MTD at 17 days [3]: ~90 mg/kg

COCCOCCOCCOCCOCCOCC(=O)N[C@H](C)C(=O)N[C@H](C)C(=O)N[C@H](CC(N)=O)C(=O)Nc1ccc(COC(=O)N2[C@H]3[C@@H]2CN2C4=C(C(=O)C(N)=C(C)C4=O)[C@H](COC(N)=O)[C@]32OC)cc1 [Compound E2]
Size of tumor (mm^3) Day 13 (HT1080 cells): 378.11 ± 68.46 mm^3
inhibitory rate on tumor Day 13 (HT1080 cells): 58.5%
Size of tumor (mm^3) Day 26 (HT1080 cells): 137.60 ± 156.42 mm^3
inhibitory rate on tumor (Day 26) (HT1080 cells): 91.3%
Inhibition on tumor growth, in words (HT1080 cells): greatly improved
MTD at 17 days [3]: ~90 mg/kg

CO[C@@]12[C@H](COC(N)=O)C3=C(C(=O)C(C)=C(N)C3=O)N1C[C@@H]1N[C@@H]12 [mitomycin, reference compound]
Size of tumor (mm^3) Day 13 (HT1080 cells): 876.48 ± 78.29 mm^3
inhibitory rate on tumor Day 13 (HT1080 cells): 3.7%
Size of tumor (mm^3) Day 26 (HT1080 cells): 1410.28 ± 375.46 mm^3
inhibitory rate on tumor (Day 26) (HT1080 cells): 10.4%
